Experimental data as given in patent publication US7592003B2, “Regulation of toll-like receptors on stem cells” (Oklahoma Medical Research Foundation, priority 2005, dated 2009).

Columns and labels:
LKS^+ cells = assay: Serum-free, stromal cell-free culture of sorted LKS+ cells, lineage markers by flow cytometry; type: cell-based, mouse
Description: FIGS. 2A-D—Activation of TLRs through MyD88 on LKS^+ cells leads to myeloid cell differentiation. (FIG. 2A) Left, sorted LKS^+ cells (10,000 cells/well) from C57BL/6 or MyD88^−/− mice were cultured in the presence of FL and SCF with medium alone, LPS (10 μg/ml) or Pam3CSK4 (1 μg/ml). After 72 h in culture, cells were analyzed by flow cytometry for expression of lineage markers. Percentages indicate the frequencies of Lin^+ or Lin^− cells. Right, the bar graph depicts yields, i.e., numbers of Lin^+ cell recovered per input progenitor and the data represent mean values with standard deviations from triplicate cultures (*P<0.01). The results are representative of five independent experiments. […] After 72 or 96 h in culture, cells were analyzed by flow cytometry for Mac-1 and F4/80. […] After 72 h in culture, cells were analyzed by flow cytometry for expression of lineage markers. […]
FIG. 11A-B—TLR stimulation causes a progression of Lin^+ cells from LKS^+ cells and soluble CD14 augments the acquisition of Mac-1 and F4/80. […] After 24 or 48 h in culture, cells were analyzed by flow cytometry for expression of lineage markers and percentages of Lin^+ or Lin^− cells are indicated. […] After 24, 48, or 72 h in culture, cells were analyzed by flow cytometry for expression of lineage markers. […] After 72 h in culture, cells were analyzed by flow cytometry for expression of Mac-1 and F4/80. […]

GMP = assay: Culture of sorted GMP for 72 h, morphology and Mac-1/F4/80 flow cytometry; type: cell-based, mouse
Description: FIGS. 5A-C—TLR stimulation drives differentiation of GMP into F4/80^hi monocytes/macrophages. (FIG. 5A) These photomicrographs were prepared with Giemsa-May-Grünwald stained cytocentrifuged slides. ([…]) Sorted GMP were stimulated with LPS (1 μg/ml), Pam3CSK4 (100 ng/ml), M-CSF, or GM-CSF. After 72 h in culture, cells were analyzed by flow cytometry for expression of F4/80 and Mac-1. Percentages indicate the frequencies of Mac-1^lo F4/80^lo or Mac-1^hi F4/80^hi cells. CD86, Gr-1, or CD62L were analyzed by flow cytometry on Mac-1^hi F4/80^hi cells. Open histograms depict staining with the appropriate isotype matched Abs. The results are representative of those obtained in two independent experiments. (FIG. 5C) The bar graphs depict cell yields of Mac-1^lo F4/80^lo or Mac-1^hi F4/80^hi cells. The data represent mean values with standard deviations from triplicate cultures and are representative of three independent experiments.
Serum-free, stromal cell-free cell cultures. Round-bottomed 96-well plates or flat-bottomed 24-well plates (Corning Inc.) were used for these cultures. […]
Cell morphology. Cytospins of cultured progenitor cells were stained with Giemsa-May-Grünwald (Sigma Diagnostics, St. Louis, Mo.), mounted in Immersol (Zeiss, Thornwood, N.Y.), and analyzed on a Zeiss Axioplan 2i microscope with a 100×/1.4 NA Plan Achromat objective. […]

## Pam3CSK4
LKS^+ cells; LKS+ cells with FL and SCF, within 72 h
  Increase of absolute numbers of Lin+ cells: approximately eight-fold
LKS^+ cells; MyD88-deficient LKS+ cells, 72 h
  Increase of Lin+ cells with cells from MyD88-deficient mice: did not occur
GMP
  CD11b/Mac-1 expression of cells produced from GMP: Virtually all cells produced in response to LPS or Pam3CSK4 were CD11b/Mac-1^+
GMP; GMP, Giemsa-May-Grünwald
  Morphology of recovered cells: less homogeneous in appearance
